In patent publication US5948785A, “Heterocyclic amide compounds and pharmaceutical use of the same” (The Green Cross Corporation, priority 1995, dated 1999):

molecular target: T1, human heart chymase (Homo sapiens, UniProt P23946); assay: Inhibitory activity on amidase activity of human heart chymase; type: biochemical; settings: 5 nM chymase; succinyl-alanyl-alanyl-prolyl-phenylalanine-p-nitroanilide 2.5 mM; pH 9.0; Easson-Stedman plot; read-out: K^i (human heart chymase inhibitory activity)
T1 sequence (P23946 22-247): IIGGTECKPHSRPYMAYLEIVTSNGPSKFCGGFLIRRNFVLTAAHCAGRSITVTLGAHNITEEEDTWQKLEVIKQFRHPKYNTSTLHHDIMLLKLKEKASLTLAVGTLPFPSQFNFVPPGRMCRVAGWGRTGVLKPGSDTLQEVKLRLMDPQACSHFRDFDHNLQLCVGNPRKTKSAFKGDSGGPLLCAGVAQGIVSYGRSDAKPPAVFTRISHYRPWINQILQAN
Experimental: The effectiveness of the inhibitory activity of compound (I) of the present invention was evaluated based on the inhibitory activity on amidase activity of human heart chymase, which was determined as in the following.
The inhibitory activity was quantitatively determined through variation in fractional residual activity of the enzyme caused by the inventive compound in defined serial concentration (<×1, <×10, <×100-fold equivalents) relative to 5 nM chymase in the presence of synthetic substrate, succinyl-alanyl-alanyl-prolyl-phenylalanine-p-nitroanilide (final concentration 2.5 mM). The inhibitory effect was analyzed by least square regression of Easson-Stedman plot (Proc. Roy. Soc. B. 1936, 121, p. 141) utilizing bimolecular equilibrium reaction linearization formula. The inhibitory activity was evaluated by the apparent inhibitory constant (Kiapp) obtained by this analysis and inhibitory constant (Ki) calculated from final substrate concentration in the reaction mixture and Km values separately determined. The quantitative determination of initial rate of the enzyme reaction was spectrophotometrically detected in terms of an increased amount of p-nitroaniline at 405 nm produced by hydrolysis of the substrate. The chymase inhibitory activity of the compound of the present invention was calculated as ratio of residual activity in the presence of inhibitor relative to enzyme activity in the absence of inhibitor, and incorporation of the determination values was completed at a level less than initial rate guarantee absorbance at a concentration of the substrate used for the enzyme, after which analysis was performed.
The reaction mixture consisted of an Na2 B4 O7 (100 mM)-KH2 PO4 (50 mM) buffer (pH 9.0, 120 μl) containing 0.1% Triton-X100, the inventive compound dissolved in 20 μl of 10% dimethyl sulfoxide (DMSO), 10% bovine serum albumin dissolved in 20 μl of the same buffer, substrate dissolved in 20 μl of DMSO, and 20 μl of chymase, thus amounting to 200 μl in total.
Starting with the absorbance immediately after addition of the enzyme, increases in absorbance were recorded as a progressive curve taken precisely at equal time intervals.
From the above data, the difference between absorbances at completion of the reaction and immediately after addition was used to quantitatively determine the residual activity of the sample added with the inhibitor relative to a control wherein the inhibitor was not added. Alternatively, reaction rates of the control and the sample added with the inhibitor were calculated for certain time period (≥20 min) with successive shift (every 10 to 30 minutes) of the period, and the residual activity ratio was quantitatively determined and analyzed from the respective reaction rates averaged through the entire reaction time.

Question: Which Ki does the source give for `Nc1cnc(-c2ccccc2)n(CC(=O)NC(Cc2ccccc2)C(=O)C(F)(F)F)c1=O` (stereo not drawn) [Example 2, 2-(5-amino-6-oxo-2-phenyl-1,6-dihydro-1-pyrimidyl)-N-(1-benzyl-3,3,3-trifluoro-2-oxopropyl)acetamide] here?
Answer: Its Ki is 7.2 µM.

Question: How did the Ki turn out when `O=C(Cn1c(-c2ccc(F)cc2)ncc(NC(=O)OCc2ccccc2)c1=O)NC(Cc1ccccc1)C(=O)C(F)(F)F` (stereo not drawn) [Example 3, 2-[5-benzyloxycarbonylamino-2-(4-fluorophenyl)-6-oxo-1,6-dihydro-1-pyrimidyl]-N-(1-benzyl-3,3,3-trifluoro-2-oxopropyl)acetamide] was run?
Answer: Its Ki is 5.6 µM.

Question: For `Nc1cnc(-c2ccc(F)cc2)n(CC(=O)NC(Cc2ccccc2)C(=O)C(F)(F)F)c1=O` (stereo not drawn) [Example 4, 2-[5-amino-2-(4-fluorophenyl)-6-oxo-1,6-dihydro-1-pyrimidyl]-N-(1-benzyl-3,3,3-trifluoro-2-oxopropyl)acetamide], which Ki is on record?
Answer: The Ki was 4.1 µM.

Question: With `Cc1ccc(-c2ncc(NC(=O)OCc3ccccc3)c(=O)n2CC(=O)NC(Cc2ccccc2)C(=O)C(F)(F)F)cc1` (stereo not drawn) [Example 5, 2-[5-benzyloxycarbonylamino-6-oxo-2-(p-tolyl)-1,6-dihydro-1-pyrimidyl]-N-(1-benzyl-3,3,3-trifluoro-2-oxopropyl)-acetamide] as the compound, how does the Ki read?
Answer: Its Ki is 8.7 µM.

Question: Which Ki does the source give for `Cc1ccc(-c2ncc(N)c(=O)n2CC(=O)NC(Cc2ccccc2)C(=O)C(F)(F)F)cc1` (stereo not drawn) [Example 6, 2-[5-amino-6-oxo-2-(p-tolyl)-1,6-dihydro-1-pyrimidyl]-N-(1-benzyl-3,3,3-trifluoro-2-oxopropyl)acetamide] here?
Answer: Its Ki is 7 µM.

Question: `Cc1cccc(-c2ncc(NC(=O)OCc3ccccc3)c(=O)n2CC(=O)NC(Cc2ccccc2)C(=O)C(F)(F)F)c1` (stereo not drawn) [Example 7, 2-[5-benzyloxycarbonylamino-6-oxo-2-(m-tolyl)-1,6-dihydro-1-pyrimidyl]-N-(1-benzyl-3,3,3-trifluoro-2-oxopropyl)-acetamide] was tested. Which Ki did it give?
Answer: Its Ki is 4.8 µM.
